“And” between values parts separate entries of the source, which are not always exact repeats. Equal entries are not always repeated.

The test system of this assay is BDF1 mice, Adenocarcinoma 755 s.c., tumor weight T/C. The experiment in a line: NCI In Vivo Anticancer Drug Screen. Data for tumor model Adenocarcinoma 755 (subcutaneous) in B6D2F1 (BDF1) mice. Particulars: endpoint: mean tumor weight, higher = larger tumour. The method in brief:
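Tumor-bearing mice receive test compound while controls get vehicle alone. Antitumor effect is scored from survival or tumor dimensions as a T/C quotient.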

[1] abbreviates: dose: 50.0 mg/kg/injection, schedule: Q01DX011 (ip), vehicle: methylcellulose (MC).

Regarding `CC(C)Cn1cnc2c(SCc3ccc(Br)cc3)nc(N)nc21`, the T/C runs as follows: under setting [1], 40 % of control; (dose: 150.0 mg/kg/injection, schedule: Q01DX011 (ip), vehicle: methylcellulose (MC)) 4 % of control; (dose: 200.0 mg/kg/injection, schedule: Q01DX011 (ip), vehicle: methylcellulose (MC)) 1 % of control; (dose: 400.0 mg/kg/injection, schedule: Q01DX011 (ip), vehicle: methylcellulose (MC)) 2 % of control.

For the compound `C[C@]12C=CC(=O)C=C1CC[C@@H]1[C@@H]2[C@@H](O)C[C@@]2(C)[C@H]1CC[C@]2(O)C(=O)COC(=O)CCC1CCCC1`, the T/C was 64 % of control (dose: 3.1 mg/kg/injection, schedule: Q01DX011 (sc), vehicle: steriod suspending solution); 43 % of control (dose: 6.25 mg/kg/injection, schedule: Q01DX011 (sc), vehicle: steriod suspending solution); 47 % of control (dose: 6.25 mg/kg/injection, schedule: Q01DX011 (sc), vehicle: water); 34 % of control (dose: 12.5 mg/kg/injection, schedule: Q01DX011 (sc), vehicle: steriod suspending solution); 32 % of control (dose: 12.5 mg/kg/injection, schedule: Q01DX011 (sc), vehicle: water); 22 % of control (dose: 25.0 mg/kg/injection, schedule: Q01DX011 (sc), vehicle: steriod suspending solution). Also, the T/C was 12 % of control (dose: 25.0 mg/kg/injection, schedule: Q01DX011 (sc), vehicle: water) and 13 % of control (dose: 50.0 mg/kg/injection, schedule: Q01DX011 (sc), vehicle: steriod suspending solution).

With `[N-]=[N+]=CC(=O)NCC(=O)NN`, the T/C reads like this: (dose: 62.5 mg/kg/injection, schedule: Q01DX011 (ip), vehicle: saline) 115 % of control; (dose: 250.0 mg/kg/injection, schedule: Q01DX011 (ip), vehicle: saline) 39 % of control; (dose: 500.0 mg/kg/injection, schedule: Q01DX011 (ip), vehicle: saline) 43 % of control.

`CN1CC[C@]23c4c5ccc(O)c4O[C@H]2C(=O)CC[C@H]3[C@H]1C5`: the T/C runs as follows: (dose: 8.0 mg/kg/injection, schedule: Q01DX011 (ip), vehicle: methylcellulose (MC)) 53 % of control and 70 % of control; (dose: 16.0 mg/kg/injection, schedule: Q01DX011 (ip), vehicle: methylcellulose (MC)) 50 % of control and 75 % of control; (dose: 32.0 mg/kg/injection, schedule: Q01DX011 (ip), vehicle: methylcellulose (MC)) 61 % of control.

For `Cc1cc2nc3c(=O)[nH]c(=O)nc-3n(CC(O)C(O)C(O)C(O)CO)c2cc1C` (stereo unspecified), the T/C runs as follows: (dose: 12.0 mg/kg/injection, schedule: Q01DX011 (ip), vehicle: carboxymethylcellulose (CMC)) 96 % of control and 111 % of control; (dose: 14.13 mg/kg/injection, schedule: Q01DX011 (ip), vehicle: carboxymethylcellulose (CMC)) 91 % of control; (dose: 19.0 mg/kg/injection, schedule: Q01DX011 (ip), vehicle: carboxymethylcellulose (CMC)) 90 % of control and 76 % of control; (dose: 26.25 mg/kg/injection, schedule: Q01DX011 (ip), vehicle: carboxymethylcellulose (CMC)) 79 % of control; (dose: 28.25 mg/kg/injection, schedule: Q01DX011 (ip), vehicle: carboxymethylcellulose (CMC)) 122 % of control; (dose: 52.5 mg/kg/injection, schedule: Q01DX011 (ip), vehicle: carboxymethylcellulose (CMC)) 95 % of control. For the same compound, the T/C reads like this: (dose: 56.5 mg/kg/injection, schedule: Q01DX011 (ip), vehicle: carboxymethylcellulose (CMC)) 60 % of control; (dose: 62.5 mg/kg/injection, schedule: Q01DX011 (ip), vehicle: methylcellulose (MC)) 94 % of control; (dose: 105.0 mg/kg/injection, schedule: Q01DX011 (ip), vehicle: carboxymethylcellulose (CMC)) 116 % of control; (dose: 113.0 mg/kg/injection, schedule: Q01DX011 (ip), vehicle: carboxymethylcellulose (CMC)) 62 % of control; (dose: 125.0 mg/kg/injection, schedule: Q01DX011 (ip), vehicle: methylcellulose (MC)) 27 % of control; (dose: 210.0 mg/kg/injection, schedule: Q01DX011 (ip), vehicle: carboxymethylcellulose (CMC)) 101 % of control.

Take `COc1cc(C(=O)[O][Hg][CH2]C2CC(O)CC([CH2][Hg][O]C(=O)c3cc(OC)c(OC)c(OC)c3)O2)cc(OC)c1OC` (stereo unspecified): where the note is “dose: 25.0 mg/kg/injection, schedule: Q01DX011 (ip), vehicle: carboxymethylcellulose (CMC)”, the T/C is 61 % of control.

In the case of `Fc1ccccc1CSc1ncnc2c1ncn2C1CCCO1` (stereo unspecified), the T/C is, setting by setting: (dose: 3.4 mg/kg/injection, schedule: Q01DX011 (ip), vehicle: methylcellulose (MC)) 82 % of control; (dose: 6.75 mg/kg/injection, schedule: Q01DX011 (ip), vehicle: methylcellulose (MC)) 96 % of control; (dose: 12.5 mg/kg/injection, schedule: Q01DX011 (ip), vehicle: methylcellulose (MC)) 26 % of control; (dose: 25.0 mg/kg/injection, schedule: Q01DX011 (ip), vehicle: methylcellulose (MC)) 1 % of control and 15 % of control; under setting [1], 1 % of control.

Regarding `CCc1c(Cl)nc(N)nc1Nc1ccc(Cl)c(Cl)c1`, the T/C was 117 % of control (dose: 15.0 mg/kg/injection, schedule: Q01DX011 (ip), vehicle: methylcellulose (MC)) and 123 % of control (dose: 31.0 mg/kg/injection, schedule: Q01DX011 (ip), vehicle: methylcellulose (MC)).

With `NC(=O)c1ccc(NC(=O)/C=C/C(=O)Nc2ccc(C(N)=O)cn2)nc1`, the T/C is, setting by setting: (dose: 0.47 mg/kg/injection, schedule: Q01DX011 (ip), vehicle: carboxymethylcellulose (CMC)) 75 % of control; (dose: 0.94 mg/kg/injection, schedule: Q01DX011 (ip), vehicle: carboxymethylcellulose (CMC)) 69 % of control; (dose: 1.87 mg/kg/injection, schedule: Q01DX011 (ip), vehicle: carboxymethylcellulose (CMC)) 28 % of control.

As for `Nc1nc(N)c(N=O)c(Nc2ccc(Br)cc2)n1`, the T/C (dose: 5.0 mg/kg/injection, schedule: Q01DX011 (ip), vehicle: methylcellulose (MC)) was 71 % of control; the T/C (dose: 10.0 mg/kg/injection, schedule: Q01DX011 (ip), vehicle: methylcellulose (MC)) is 32 % of control; the T/C (dose: 20.0 mg/kg/injection, schedule: Q01DX011 (ip), vehicle: methylcellulose (MC)) is 20 % of control and 31 % of control; the T/C (dose: 22.0 mg/kg/injection, schedule: Q01DX011 (ip), vehicle: methylcellulose (MC)) was 44 % of control; the T/C (dose: 40.0 mg/kg/injection, schedule: Q01DX011 (ip), vehicle: methylcellulose (MC)) is 16 % of control; the T/C (dose: 44.0 mg/kg/injection, schedule: Q01DX011 (ip), vehicle: methylcellulose (MC)) is 21 % of control. In addition, the T/C (dose: 88.0 mg/kg/injection, schedule: Q01DX011 (ip), vehicle: methylcellulose (MC)) is 20 % of control and 30 % of control.

Regarding `C[N+](C)(C)C(C(=O)c1ccccc1)c1ccccc1` (stereo unspecified), the T/C (dose: 10.0 mg/kg/injection, schedule: Q01DX011 (ip), vehicle: carboxymethylcellulose (CMC)) was 124 % of control.

As to `Ic1ncnc2nc[nH]c12`, the T/C is 90 % of control (dose: 2.5 mg/kg/injection, schedule: Q01DX011 (ip), vehicle: carboxymethylcellulose (CMC)); 78 % of control (dose: 3.2 mg/kg/injection, schedule: Q01DX011 (oral), vehicle: carboxymethylcellulose (CMC)); 90 % of control (dose: 5.0 mg/kg/injection, schedule: Q01DX011 (ip), vehicle: carboxymethylcellulose (CMC)); 41 % of control (dose: 7.5 mg/kg/injection, schedule: Q01DX011 (oral), vehicle: carboxymethylcellulose (CMC)); 14 % of control (dose: 15.0 mg/kg/injection, schedule: Q01DX011 (oral), vehicle: carboxymethylcellulose (CMC)); 21 % of control (dose: 62.5 mg/kg/injection, schedule: Q01DX011 (ip), vehicle: carboxymethylcellulose (CMC)).

With `O=C1C(Cl)=C(Cl)C(=O)C2=C1C1c3ccccc3C2c2ccccc21`, the T/C was 83 % of control (dose: 37.0 mg/kg/injection, schedule: Q01DX011 (ip), vehicle: carboxymethylcellulose (CMC)); 117 % of control (dose: 37.5 mg/kg/injection, schedule: Q01DX011 (ip), vehicle: carboxymethylcellulose (CMC)); 113 % of control and 114 % of control (dose: 75.0 mg/kg/injection, schedule: Q01DX011 (ip), vehicle: carboxymethylcellulose (CMC)); 89 % of control and 84 % of control (dose: 150.0 mg/kg/injection, schedule: Q01DX011 (ip), vehicle: carboxymethylcellulose (CMC)); 83 % of control (dose: 300.0 mg/kg/injection, schedule: Q01DX011 (ip), vehicle: carboxymethylcellulose (CMC)); 41 % of control (dose: 325.0 mg/kg/injection, schedule: Q01DX011 (ip), vehicle: carboxymethylcellulose (CMC)). The T/C reads like this: (dose: 400.0 mg/kg/injection, schedule: Q01DX011 (ip), vehicle: carboxymethylcellulose (CMC)) 33 % of control; (dose: 600.0 mg/kg/injection, schedule: Q01DX011 (ip), vehicle: carboxymethylcellulose (CMC)) 15 % of control.

In the case of `Nc1nc(SCc2cccnc2)c2ncn(C3OC(CO)C(O)C3O)c2n1` (stereo unspecified), the T/C reads like this: (dose: 1.5 mg/kg/injection, schedule: Q01DX011 (ip), vehicle: methylcellulose (MC)) 92 % of control; (dose: 3.1 mg/kg/injection, schedule: Q01DX011 (ip), vehicle: methylcellulose (MC)) 87 % of control; (dose: 6.2 mg/kg/injection, schedule: Q01DX011 (ip), vehicle: methylcellulose (MC)) 12 % of control and 15 % of control.

One may read the T/C as the result in the treated group divided by that in the control group, in per cent.

The record behind these values is PubChem BioAssay AID180 (DTP/NCI, 2004).
